Data published in PubChem BioAssay (NCI).
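Where inhibition never reached the appropriate level, the endpoint shown equals the highest concentration tested. Otherwise, values were interpolated linearly from a five-concentration, 48-hour dose response in 96-well plates. TGI: total growth inhibition.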

Columns and labels:
Assay in all cases: NCI-60 cell line screen, 48 h
SF-268 CNS = test system: SF-268 CNS
SN12C renal = test system: SN12C renal
OVCAR-8 ovarian = test system: OVCAR-8 ovarian
T-47D breast = test system: T-47D breast
SK-OV-3 ovarian = test system: SK-OV-3 ovarian
HOP-92 NSCLC = test system: HOP-92 NSCLC
MDA-MB-435 = test system: MDA-MB-435
EKVX NSCLC = test system: EKVX NSCLC
SK-MEL-28 melanoma = test system: SK-MEL-28 melanoma
UO-31 renal = test system: UO-31 renal
MDA-MB-231 breast = test system: MDA-MB-231 breast
HCC-2998 colon = test system: HCC-2998 colon
PC-3 prostate = test system: PC-3 prostate
MDA-N = test system: MDA-N
HCT-116 colon = test system: HCT-116 colon
M14 melanoma = test system: M14 melanoma
SF-295 CNS = test system: SF-295 CNS
K-562 leukemia = test system: K-562 leukemia
SK-MEL-5 melanoma = test system: SK-MEL-5 melanoma
CAKI-1 renal = test system: CAKI-1 renal
786-0 renal = test system: 786-0 renal
OVCAR-4 ovarian = test system: OVCAR-4 ovarian
SW-620 colon = test system: SW-620 colon
LOX IMVI melanoma = test system: LOX IMVI melanoma
KM12 colon = test system: KM12 colon
UACC-257 melanoma = test system: UACC-257 melanoma
DU-145 prostate = test system: DU-145 prostate
NCI/ADR-RES ovarian = test system: NCI/ADR-RES ovarian
IGROV1 ovarian = test system: IGROV1 ovarian
NCI-H460 lung = test system: NCI-H460 lung
MCF7 breast = test system: MCF7 breast
CCRF-CEM leukemia = test system: CCRF-CEM leukemia
MOLT-4 leukemia = test system: MOLT-4 leukemia
U251 CNS = test system: U251 CNS
SK-MEL-2 melanoma = test system: SK-MEL-2 melanoma
A549 NSCLC = test system: A549 NSCLC
OVCAR-3 ovarian = test system: OVCAR-3 ovarian
HT29 colon = test system: HT29 colon
RXF 393 renal = test system: RXF 393 renal
NCI-H23 lung = test system: NCI-H23 lung
MALME-3M melanoma = test system: MALME-3M melanoma
A498 renal = test system: A498 renal
NCI-H226 lung = test system: NCI-H226 lung
OVCAR-5 ovarian = test system: OVCAR-5 ovarian
RPMI-8226 leukemia = test system: RPMI-8226 leukemia
COLO 205 colon = test system: COLO 205 colon
SNB-19 CNS = test system: SNB-19 CNS
SF-539 CNS = test system: SF-539 CNS
HL-60(TB) leukemia = test system: HL-60(TB) leukemia
HCT-15 colon = test system: HCT-15 colon
ACHN renal = test system: ACHN renal
BT-549 breast = test system: BT-549 breast
TK-10 renal = test system: TK-10 renal
HS 578T breast = test system: HS 578T breast
NCI-H522 lung = test system: NCI-H522 lung
HOP-62 NSCLC = test system: HOP-62 NSCLC
UACC-62 melanoma = test system: UACC-62 melanoma
SNB-75 CNS = test system: SNB-75 CNS

Molecule `CCCCCc1cccc(=O)o1` has a TGI (SF-268 CNS) greater than 100 µM, a TGI (SN12C renal) greater than 100 µM and a TGI (OVCAR-8 ovarian) greater than 100 µM. The TGI (T-47D breast) was greater than 100 µM, the TGI (SK-OV-3 ovarian) was greater than 100 µM and the TGI (HOP-92 NSCLC) was greater than 100 µM. The TGI (MDA-MB-435) was greater than 100 µM, the TGI (EKVX NSCLC) was greater than 100 µM and the TGI (SK-MEL-28 melanoma) was greater than 100 µM. It also gave a TGI (UO-31 renal) greater than 100 µM, a TGI (MDA-MB-231 breast) greater than 100 µM and a TGI (HCC-2998 colon) greater than 100 µM. The TGI (PC-3 prostate) was greater than 100 µM, the TGI (MDA-N) was greater than 100 µM and the TGI (HCT-116 colon) was greater than 100 µM. The TGI (M14 melanoma) was greater than 100 µM, the TGI (SF-295 CNS) was greater than 100 µM and the TGI (K-562 leukemia) was greater than 100 µM. The TGI (SK-MEL-5 melanoma) was greater than 100 µM, the TGI (CAKI-1 renal) was greater than 100 µM and the TGI (786-0 renal) was greater than 100 µM. For the same molecule, the TGI (OVCAR-4 ovarian) was greater than 100 µM, the TGI (SW-620 colon) was greater than 100 µM and the TGI (LOX IMVI melanoma) was greater than 100 µM. For the same molecule, the TGI (KM12 colon) was greater than 100 µM, the TGI (UACC-257 melanoma) was greater than 100 µM and the TGI (DU-145 prostate) was greater than 100 µM. The TGI (NCI/ADR-RES ovarian) was greater than 100 µM, the TGI (IGROV1 ovarian) was greater than 100 µM and the TGI (NCI-H460 lung) was greater than 100 µM. For the same molecule, the TGI (MCF7 breast) was greater than 100 µM, the TGI (CCRF-CEM leukemia) was greater than 100 µM and the TGI (MOLT-4 leukemia) was greater than 100 µM. It also gave a TGI (U251 CNS) greater than 100 µM, a TGI (SK-MEL-2 melanoma) greater than 100 µM and a TGI (A549 NSCLC) greater than 100 µM. It also gave a TGI (OVCAR-3 ovarian) greater than 100 µM, a TGI (HT29 colon) greater than 100 µM and a TGI (RXF 393 renal) greater than 100 µM. For the same molecule, the TGI (NCI-H23 lung) was greater than 100 µM, the TGI (MALME-3M melanoma) was greater than 100 µM and the TGI (A498 renal) was greater than 100 µM. It also gave a TGI (NCI-H226 lung) greater than 100 µM, a TGI (OVCAR-5 ovarian) greater than 100 µM and a TGI (RPMI-8226 leukemia) greater than 100 µM. For the same molecule, the TGI (COLO 205 colon) was greater than 100 µM, the TGI (SNB-19 CNS) was greater than 100 µM and the TGI (SF-539 CNS) was greater than 100 µM. For the same molecule, the TGI (HL-60(TB) leukemia) was greater than 100 µM, the TGI (HCT-15 colon) was greater than 100 µM and the TGI (ACHN renal) was greater than 100 µM. The TGI (BT-549 breast) was greater than 100 µM, the TGI (TK-10 renal) was greater than 100 µM and the TGI (HS 578T breast) was greater than 100 µM. The TGI (NCI-H522 lung) was greater than 100 µM, the TGI (HOP-62 NSCLC) was greater than 100 µM and the TGI (UACC-62 melanoma) was greater than 100 µM.

`Cc1cn(C(=O)NC23CC4CC(CC(C4)C2)C3)c(=O)[nH]c1=O` gave a TGI (SF-268 CNS) greater than 100 µM, a TGI (SN12C renal) greater than 100 µM and a TGI (OVCAR-8 ovarian) greater than 100 µM. The TGI (T-47D breast) was greater than 100 µM, the TGI (SK-OV-3 ovarian) was greater than 100 µM and the TGI (HOP-92 NSCLC) was greater than 100 µM. For the same molecule, the TGI (MDA-MB-435) was greater than 100 µM, the TGI (EKVX NSCLC) was 65.5 µM and the TGI (SK-MEL-28 melanoma) was greater than 100 µM. For the same molecule, the TGI (UO-31 renal) was greater than 100 µM, the TGI (MDA-MB-231 breast) was 61.3 µM and the TGI (HCC-2998 colon) was greater than 100 µM. For the same molecule, the TGI (PC-3 prostate) was greater than 100 µM, the TGI (MDA-N) was greater than 100 µM and the TGI (HCT-116 colon) was greater than 100 µM. The TGI (M14 melanoma) was greater than 100 µM, the TGI (SF-295 CNS) was greater than 100 µM and the TGI (K-562 leukemia) was greater than 100 µM. The TGI (SK-MEL-5 melanoma) was greater than 100 µM, the TGI (CAKI-1 renal) was greater than 100 µM and the TGI (786-0 renal) was greater than 100 µM. It also gave a TGI (OVCAR-4 ovarian) greater than 100 µM, a TGI (SW-620 colon) greater than 100 µM and a TGI (LOX IMVI melanoma) of 83 µM. The TGI (KM12 colon) was greater than 100 µM, the TGI (UACC-257 melanoma) was greater than 100 µM and the TGI (DU-145 prostate) was greater than 100 µM. It also gave a TGI (NCI/ADR-RES ovarian) of 86.6 µM, a TGI (SNB-75 CNS) greater than 100 µM and a TGI (NCI-H460 lung) greater than 100 µM. The TGI (MCF7 breast) was greater than 100 µM, the TGI (CCRF-CEM leukemia) was 74.5 µM and the TGI (MOLT-4 leukemia) was 89.1 µM. For the same molecule, the TGI (U251 CNS) was greater than 100 µM, the TGI (SK-MEL-2 melanoma) was 76.3 µM and the TGI (A549 NSCLC) was greater than 100 µM. The TGI (OVCAR-3 ovarian) was greater than 100 µM, the TGI (HT29 colon) was greater than 100 µM and the TGI (RXF 393 renal) was greater than 100 µM. The TGI (NCI-H23 lung) was greater than 100 µM, the TGI (MALME-3M melanoma) was greater than 100 µM and the TGI (NCI-H226 lung) was 65.7 µM. It also gave a TGI (OVCAR-5 ovarian) greater than 100 µM, a TGI (RPMI-8226 leukemia) of 75.1 µM and a TGI (COLO 205 colon) of 75.5 µM. For the same molecule, the TGI (SNB-19 CNS) was greater than 100 µM, the TGI (SF-539 CNS) was greater than 100 µM and the TGI (HL-60(TB) leukemia) was 51.2 µM. It also gave a TGI (HCT-15 colon) of 80.3 µM, a TGI (ACHN renal) of 94.1 µM and a TGI (BT-549 breast) of 86.1 µM. For the same molecule, the TGI (TK-10 renal) was greater than 100 µM, the TGI (HS 578T breast) was greater than 100 µM and the TGI (HOP-62 NSCLC) was greater than 100 µM. For the same molecule, the TGI (UACC-62 melanoma) was 71.4 µM.
